Values of other authors as cited in publication PMC11226190 (Drug Design, Development and Therapy, 2024).

Settings: comparable publication

SMILES: NC(=O)CI [Iodoacetamide]
- second order rate constant, DTNB assay: 2.5 M⁻¹ s⁻¹
